Source: US20060019977A1, “Spiroheterocyclic derivative compounds and drugs comprising the compound as the active ingredient” (ONO PHARMACEUTICAL CO., LTD., priority 2002, published 2006)
Structures can show the parent of a compound that is named as a salt.

Molecular target: T1, human CCR5 (Homo sapiens, UniProt P51681)
T1 construct: expressed in transfected cells
Assay: Inhibition test on the binding of RANTES to CCR5 (RANTES-induced transient increase of Ca ion in CCR5/CHO cells)
Format: cell-based
Conditions: human CCR5 stably over-expressing CHO cells; 10 nM recombinant human RANTES; Ca2+ transient increase (Fura-2AM)
Method: Specifically, e.g., since CCR5 is a G protein-coupled seven transmembrane type receptor, an assay system in which the effect of RANTES on the transient increase of Ca ion induced via CCR5 is measured can be carried out as an assay system for screening a compound capable of inhibiting binding of RANTES to CCR5. Since both of the T cell tropic (X4) HIV and SDF-1 bind to CXCR4, similar idea can be considered.
(1) Isolation of Human CCR5 Gene
Human placental cDNA was prepared using Marathon cDNA amplification kit (Clontech). PCR primers hCCR5XbaI-F1: • 5′-[…]-3′ (SEQ ID NO:1) and hCCR5XbaI-R1: • 5′-[…]-3′ (SEQ ID NO:2) were designed based on the sequence of GenBank U54994. […]
The thus established human CCR5 stably over-expressing CHO cell (CCR5/CHO cell) was suspended in Ham's F-12 medium containing FBS (10%) and dispensed in […] portions into a 96 well plate. […] Transient increase in the intracellular Ca^2+ concentration induced by the human RANTES was measured using a Ca^2+ detector for 96 well use (Hamamatsu Photonics), and inhibition ratio (%) of the test compound was calculated by the following calculation formula. Inhibition ratio=(Ec−Ea)/Ec×100 • Ec: measured value of Ca^2+ transient increase by RANTES • Ea: measured value of Ca^2+ transient increase by RANTES when a test compound was added

T1 sequence (P51681 whole entry): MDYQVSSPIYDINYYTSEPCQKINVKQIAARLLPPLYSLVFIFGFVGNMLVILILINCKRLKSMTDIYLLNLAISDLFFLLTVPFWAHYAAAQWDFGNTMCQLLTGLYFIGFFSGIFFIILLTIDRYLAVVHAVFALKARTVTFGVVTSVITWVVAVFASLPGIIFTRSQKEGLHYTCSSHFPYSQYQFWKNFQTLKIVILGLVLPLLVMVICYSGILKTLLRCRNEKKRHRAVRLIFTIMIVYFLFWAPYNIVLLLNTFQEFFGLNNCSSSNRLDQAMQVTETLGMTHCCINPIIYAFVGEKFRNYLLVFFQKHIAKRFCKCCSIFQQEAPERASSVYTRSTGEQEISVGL

Row | IC50 [nM] | SMILES
1 | 740 | CCCCN1C(=O)[C@@H]2CSCN2C(=O)C12CCN(Cc1ccc(Oc3ccccc3)cc1)CC2 [Example 1(1), (3R)-1-butyl-2,5-dioxo-3,4-(2-thiapropano)-9-[(4-phenoxyphenyl)methyl]-1,4,9-triazaspiro[5.5]undecane hydrochloride]
2 | 12 | CCCCN1C(=O)C2(CCCC2)NC(=O)C12CCN(Cc1ccc(Oc3ccc(C(=O)NC)cc3)cc1)CC2 [Example 5, 1-butyl-2,5-dioxo-3,3-butano-9-[4-(4methylcarbamoylphenoxy)benzyl]-1,4,9-triazaspiro[5.5]undecane hydrochloride]
